This is an account of results in patent publication US20250066316A1, “CRYSTALLINE FORMS OF A COMPOUND FOR TREATING OR PREVENTING GOUT OR HYPERURICEMIA” (Arthrosi Therapeutics, Inc., priority 2021, published 2025).

Each structure is given as a SMILES string. Where only a bound is given, the exact number is not on record here.

Data set [1] deals with T1, human URAT1 uptake transporter (Homo sapiens, UniProt Q96S37).
T1 construct: expressed in transfected cells
T1 sequence (Q96S37 1-553): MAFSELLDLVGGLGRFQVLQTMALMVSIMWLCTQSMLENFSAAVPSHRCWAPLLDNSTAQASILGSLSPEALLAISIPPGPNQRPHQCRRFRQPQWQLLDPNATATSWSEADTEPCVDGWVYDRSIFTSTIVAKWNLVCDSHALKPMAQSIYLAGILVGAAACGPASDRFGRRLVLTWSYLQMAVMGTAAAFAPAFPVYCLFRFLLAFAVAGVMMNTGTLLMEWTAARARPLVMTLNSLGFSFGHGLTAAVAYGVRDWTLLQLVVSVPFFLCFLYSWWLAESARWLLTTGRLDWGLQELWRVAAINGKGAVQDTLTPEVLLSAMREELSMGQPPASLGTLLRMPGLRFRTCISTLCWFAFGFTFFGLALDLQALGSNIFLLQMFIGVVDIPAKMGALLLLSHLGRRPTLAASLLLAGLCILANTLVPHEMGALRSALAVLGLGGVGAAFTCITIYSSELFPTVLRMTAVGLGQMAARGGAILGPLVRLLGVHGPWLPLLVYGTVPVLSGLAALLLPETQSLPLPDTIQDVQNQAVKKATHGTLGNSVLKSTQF
Kind of data set: In vitro interaction with the human URAT1 uptake transporter (uric acid uptake in MDCKII cells). It counts as cell-based. To be noted: for inhibition at 10 µM: MDCK-II, read-out: inhibition of URAT1 mediated uric acid accumulation. As for the experimental part:
Uptake experiments were performed using MDCKII cells stably expressing the human URAT1 uptake transporter. Cells were cultured at 37±1° C. in an atmosphere of 95:5 air:CO2 and were plated onto standard 96-well tissue culture plates at the cell number described in Table 1.
Radiolabelled probe substrate transport was determined by measuring an aliquot (35 μL) from each well for liquid scintillation counting.

Data set [2] can be described thus: Stability in human microsomes. It counts as in vitro ADME. The conditions noted are these: comparison with benzbromarone.
The next data set addresses CYP2C9 (Homo sapiens, UniProt P11712). Kind of data set: CYP2C9 metabolic pathway / metabolite formation. In kind it is in vitro ADME.
The nature of data set [3]: Solubility of test articles in HBSS assay buffer. To be noted: all tested concentrations; highest tested concentration 10 μM.
Experimental: Before the experiment, the medium was removed and the cells were washed twice with 100 μL of HBSS without Cl^−. Uptake experiments were carried out at 37±1° C. in 50 μL of HBSS without Cl^−, pH 7.4 containing the probe substrate (20 μM uric acid) and the test article (TA) or solvent.
The conditions of data set [4]: cited from earlier work.

Chain of CYP2C9 (P11712 whole entry): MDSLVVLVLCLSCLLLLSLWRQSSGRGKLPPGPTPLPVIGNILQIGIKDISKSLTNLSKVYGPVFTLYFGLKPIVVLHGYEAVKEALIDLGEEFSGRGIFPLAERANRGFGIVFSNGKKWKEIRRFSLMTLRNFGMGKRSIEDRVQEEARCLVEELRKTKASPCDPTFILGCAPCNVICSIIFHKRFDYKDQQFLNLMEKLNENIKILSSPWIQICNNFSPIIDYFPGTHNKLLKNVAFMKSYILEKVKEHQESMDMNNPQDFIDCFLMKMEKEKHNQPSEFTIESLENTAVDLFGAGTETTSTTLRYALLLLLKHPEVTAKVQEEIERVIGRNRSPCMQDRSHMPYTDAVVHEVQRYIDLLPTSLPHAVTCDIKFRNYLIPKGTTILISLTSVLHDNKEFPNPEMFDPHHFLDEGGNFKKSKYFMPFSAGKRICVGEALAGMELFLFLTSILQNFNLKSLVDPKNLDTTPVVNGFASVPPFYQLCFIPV

Broadly, the inhibition is the relative decrease from the control value, in per cent. For `[2H]c1c([2H])c([2H])c2c(C(=O)c3cc(Br)c(O)c(Br)c3)c(C(C)O)oc2c1[2H]` (stereo not shown) [Compound 1, (3,5-dibromo-4-hydroxyphenyl) (2-(1-hydroxyethyl)benzofuran-3-yl-4,5,6,7-d4) methanone], in data set [1], the inhibition at 10 µM is 100%. For the same molecule, the “in vitro URAT1 potency compared to benzbromarone” value in data set [1] (comparison with benzbromarone) is reported as “better”. In data set [2], the “stability in human microsomes” value is “more stable than benzbromarone”. Moreover, at CYP2C9, the “CYP2C9 metabolic pathway of the compound” value is on record as “significantly reduced”; the “formation of 6-OH benzbromarone and 5,6-di-OH benzbromarone metabolites” value was “not formed”. For the same molecule, the “solubility in HBSS buffer” value in data set [3] was “soluble”.

Take `CCc1oc2ccccc2c1C(=O)c1cc(Br)c(O)c(Br)c1` [Benzbromarone, reference compound]: in data set [1], the inhibition at 10 µM was 98%. Also, the “serum uric acid (sUA) level reached” value in data set [4] (chronic therapy, target levels) is recorded as under 6 mg/dL. The hepatotoxicity entry in data set [4] (in certain patients) was “associated with hepatotoxicity”. Further, the “solubility in HBSS buffer” value in data set [3] is recorded as “soluble”.
